Test results from patent US20260258032A1, “TYROSINE KINASE 2 INHIBITORS AND USES THEREOF” (BIOGEN MA INC., priority 2022, published 2026).
Structures can show the parent of a compound that is named as a salt.

Tests used:
[1] = target: T1, JH2 domain of human Tyk2 (Homo sapiens, UniProt P29597); experiment: JH2 biochemical assay (TR-FRET probe displacement); format: binding
T1 construct: 10×His-tagged TYK2 JH2 domain (amino acid 575-876)
Outline: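 10×His-tagged human TYK2 JH2 (aa 575-876, 2 nM) incubated 60 min with 2 nM fluorescent probe, 0.1 nM Tb anti-His antibody and compound (10-point 3-fold series from […] top). TR-FRET 520/495 nm ratio, falling with probe displacement, normalized and fitted to a 4-parameter logistic for IC50.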

[2] = system: Tyk2 kinase activity on STAT4; experiment: pSTAT4 cell assay (MSD, NK92 cells); format: cell-based; details: compounds 1 hr
Outline: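 Serum-starved NK92 cells were preincubated 1 hr with compound (10-point, four-fold dilutions from 10 μM), then stimulated with 30 ng/mL IL2 for 15 minutes. Lysates were read on an MSD plate assay using anti-STAT4 antibodies, and IC50 came from a 4-parameter logistic fit of normalized percent activity.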

T1 sequence (P29597 575-876): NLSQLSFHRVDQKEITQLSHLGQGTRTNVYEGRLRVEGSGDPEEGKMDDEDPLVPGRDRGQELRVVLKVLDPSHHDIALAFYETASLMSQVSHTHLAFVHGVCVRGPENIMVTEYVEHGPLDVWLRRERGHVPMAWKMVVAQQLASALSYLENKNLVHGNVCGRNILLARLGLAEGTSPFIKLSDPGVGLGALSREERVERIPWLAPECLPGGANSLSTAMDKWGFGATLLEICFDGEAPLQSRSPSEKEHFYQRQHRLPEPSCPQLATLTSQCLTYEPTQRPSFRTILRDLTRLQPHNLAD

| SMILES | IC50 ([1]; JH2 biochemical assay) | IC50 ([2]; stimulated 15 minutes) | IC50 ([1]; TR-FRET probe displacement, JH2 domain of human Tyk2) | IC50 ([2]; then stimulated 15 minutes) |
| --- | --- | --- | --- | --- |
| CC(=O)Nc1cc2c(cn1)C1(CC1)CN2c1cc(C(C)C)nc(C(C)(F)F)n1 [Example 53, N-(1′-(2-(1,1-difluoroethyl)-6-isopropylpyrimidin-4-yl)-1′,2′-dihydrospiro[cyclopropane-1,3′-pyrrolo[3,2-c]pyridin]-6′-yl)acetamide] | ≤ 0.01 µM | 0.01 to 0.1 µM |  |  |
| CC(=O)Nc1cc2c(cn1)C1(CC1)CN2c1nc(C)cc(F)n1 [Example 331, N-(1′-(4-fluoro-6-methylpyrimidin-2-yl)-1′,2′-dihydrospiro[cyclopropane-1,3′-pyrrolo[3,2-c]pyridin]-6′-yl)acetamide trifluoroacetate] | 0.1 to 1 µM | ≥ 1 µM |  |  |
| COC(C)c1nc(C)cc(N2CC3(CC3)c3cnc(NC(C)=O)cc32)n1 (stereo not shown) [Example 130, N-(1′-(2-(1-methoxyethyl)-6-methylpyrimidin-4-yl)-1′,2′-dihydrospiro[cyclopropane-1,3′-pyrrolo[3,2-c]pyridin]-6′-yl)acetamide] | ≤ 0.01 µM | 0.1 to 1 µM |  |  |
| CCNc1cc(N2CC3(CC3)c3cnc(NC(C)=O)cc32)nc(C(C)(F)F)n1 [Example 167, N-(1′-(2-(1,1-difluoroethyl)-6-(ethylamino)pyrimidin-4-yl)-1′,2′-dihydrospiro[cyclopropane-1,3′-pyrrolo[3,2-c]pyridin]-6′-yl)acetamide trifluoroacetate] | ≤ 0.01 µM | 0.1 to 1 µM |  |  |
| CC(=O)Nc1cc2c(cn1)C1(CC1)CN2c1nc(C(C)(F)F)nc(C)c1F [Example 127, N-(1′-(2-(1,1-difluoroethyl)-5-fluoro-6-methylpyrimidin-4-yl)-1′,2′-dihydrospiro[cyclopropane-1,3′-pyrrolo[3,2-c]pyridin]-6′-yl)acetamide] | ≤ 0.01 µM | 0.1 to 1 µM |  |  |
| CC(=O)Nc1cc2c(cn1)C1(CC1)CN2c1cc(-c2cnn(CCN(C)C)c2)nc(C(C)(F)F)n1 [Example 391, N-(1′-(2-(1,1-difluoroethyl)-6-(1-(2-(dimethylamino)ethyl)-1H-pyrazol-4-yl)pyrimidin-4-yl)-1′,2′-dihydrospiro[cyclopropane-1,3′-pyrrolo[3,2-c]pyridin]-6′-yl)acetamide trifluoroacetate] |  |  | ≤ 0.01 µM | 0.01 to 0.1 µM |
| CC(=O)Nc1cc2c(cn1)C1(CC1)CN2c1cc(C)cc(OC2CCCC2)n1 [Example 354, N-(1′-(6-(cyclopentyloxy)-4-methylpyridin-2-yl)-1′,2′-dihydrospiro[cyclopropane-1,3′-pyrrolo[3,2-c]pyridin]-6′-yl)acetamide trifluoroacetate] | 0.1 to 1 µM | ≥ 1 µM |  |  |
| CC(=O)Nc1cc2c(cn1)C1(CC1)CN2c1ccc(F)c(C(C)(F)F)n1 [Example 7, N-(1′-(6-(1,1-difluoroethyl)-5-fluoropyridin-2-yl)-1′,2′-dihydrospiro[cyclopropane-1,3′-pyrrolo[3,2-c]pyridin]-6′-yl)acetamide] | ≤ 0.01 µM | 0.1 to 1 µM |  |  |
| CC(=O)Nc1cc2c(cn1)C1(CC1)CN2c1cc(C)nc(N2CCC(O)C2)n1 (stereo not shown) [Example 214, N-(1′-(2-(3-hydroxypyrrolidin-1-yl)-6-methylpyrimidin-4-yl)-1′,2′-dihydrospiro[cyclopropane-1,3′-pyrrolo[3,2-c]pyridin]-6′-yl)acetamide] | 0.1 to 1 µM | ≥ 1 µM |  |  |
| CC(=O)Nc1cc2c(cn1)C1(CC1)CN2c1cc(NCC2CC2)nc(C(C)(F)F)n1 [Example 154, N-(1′-(6-((cyclopropylmethyl)amino)-2-(1,1-difluoroethyl)pyrimidin-4-yl)-1′,2′-dihydrospiro[cyclopropane-1,3′-pyrrolo[3,2-c]pyridin]-6′-yl)acetamide trifluoroacetate] | ≤ 0.01 µM | ≤ 0.01 µM |  |  |
| COCCC(=O)Nc1cc2c(cn1)C1(CC1)CN2c1ccnc(C(C)(F)F)n1 [Example 91, N-(1′-(2-(1,1-difluoroethyl)pyrimidin-4-yl)-1′,2′-dihydrospiro[cyclopropane-1,3′-pyrrolo[3,2-c]pyridin]-6′-yl)-3-methoxypropanamide] | 0.01 to 0.1 µM | ≥ 1 µM |  |  |
| CCc1cc(N2CC3(CC3)c3cnc(NC(=O)OC)cc32)nc(C(C)(F)F)n1 [Example 311, Methyl (1′-(2-(1,1-difluoroethyl)-6-ethylpyrimidin-4-yl)-1′,2′-dihydrospiro[cyclopropane-1,3′-pyrrolo[3,2-c]pyridin]-6′-yl)carbamate trifluoroacetate] | ≤ 0.01 µM | 0.01 to 0.1 µM |  |  |
| CC(=O)Nc1cc2c(cn1)C1(CC1)CN2c1nc(C(C)(F)F)ncc1F [Example 128, N-(1′-(2-(1,1-difluoroethyl)-5-fluoropyrimidin-4-yl)-1′,2′-dihydrospiro[cyclopropane-1,3′-pyrrolo[3,2-c]pyridin]-6′-yl)acetamide] | 0.01 to 0.1 µM | ≥ 1 µM |  |  |
| CC(=O)Nc1cc2c(cn1)C1(CC1)CN2c1cc(C)cc(C2(F)CC2)n1 [Example 279, N-(1′-(6-(1-fluorocyclopropyl)-4-methylpyridin-2-yl)-1′,2′-dihydrospiro[cyclopropane-1,3′-pyrrolo[3,2-c]pyridin]-6′-yl)acetamide] | 0.01 to 0.1 µM | 0.1 to 1 µM |  |  |
| CC(=O)Nc1cc2c(cn1)C1(CC1)CN2c1cc(-c2ncn(C)n2)nc(C(C)(F)F)n1 [Example 300, N-(1′-(2-(1,1-difluoroethyl)-6-(1-methyl-1H-1,2,4-triazol-3-yl)pyrimidin-4-yl)-1′,2′-dihydrospiro[cyclopropane-1,3′-pyrrolo[3,2-c]pyridin]-6′-yl)acetamide] | ≤ 0.01 µM | 0.1 to 1 µM |  |  |
| CC(=O)Nc1cc2c(cn1)C1(CC1)CN2c1cc(C)cc(OCC(C)(F)F)n1 [Example 356, N-(1′-(6-(2,2-difluoropropoxy)-4-methylpyridin-2-yl)-1′,2′-dihydrospiro[cyclopropane-1,3′-pyrrolo[3,2-c]pyridin]-6′-yl)acetamide trifluoroacetate] | 0.01 to 0.1 µM | ≥ 1 µM |  |  |
| COCC(F)(F)c1nccc(N2CC3(CC3)c3cnc(NC(C)=O)cc32)n1 [Example 323, N-(1′-(2-(1,1-difluoro-2-methoxyethyl)pyrimidin-4-yl)-1′,2′-dihydrospiro[cyclopropane-1,3′-pyrrolo[3,2-c]pyridin]-6′-yl)acetamide] | 0.1 to 1 µM | 0.1 to 1 µM |  |  |
| COCCNc1cc(C)cc(N2CC3(CC3)c3cnc(NC(C)=O)cc32)n1 [Example 191, N-(1′-(6-((2-methoxyethyl)amino)-4-methylpyridin-2-yl)-1′,2′-dihydrospiro[cyclopropane-1,3′-pyrrolo[3,2-c]pyridin]-6′-yl)acetamide] | 0.1 to 1 µM | ≥ 1 µM |  |  |
| CC(=O)Nc1cc2c(cn1)C1(CC1)CN2c1cc(C)nc(-c2cnn(C3COC3)c2)n1 [Example 251, N-(1′-(6-methyl-2-(1-(oxetan-3-yl)-1H-pyrazol-4-yl)pyrimidin-4-yl)-1′,2′-dihydrospiro[cyclopropane-1,3′-pyrrolo[3,2-c]pyridin]-6′-yl)acetamide trifluoroacetate] | 0.01 to 0.1 µM | ≥ 1 µM |  |  |
| CC(=O)Nc1cc2c(cn1)C1(CC1)CN2c1cc(NC2CCC2)nc(C(C)(F)F)n1 [Example 157, N-(1′-(6-(cyclobutylamino)-2-(1,1-difluoroethyl)pyrimidin-4-yl)-1′,2′-dihydrospiro[cyclopropane-1,3′-pyrrolo[3,2-c]pyridin]-6′-yl)acetamide trifluoroacetate] | ≤ 0.01 µM | ≤ 0.01 µM |  |  |
| COCCOc1cc(N2CC3(CC3)c3cnc(NC(C)=O)cc32)nc(C(C)(F)F)n1 [Example 4, N-(1′-(2-(1,1-difluoroethyl)-6-(2-methoxyethoxy)pyrimidin-4-yl)-1′,2′-dihydrospiro[cyclopropane-1,3′-pyrrolo[3,2-c]pyridin]-6′-yl)acetamide] | ≤ 0.01 µM | 0.1 to 1 µM |  |  |
| COCCC1(C#N)CN(c2nc(C)cc(N3CC4(CC4)c4cnc(NC(C)=O)cc43)n2)C1 [Example 220, N-(1′-(2-(3-cyano-3-(2-methoxyethyl)azetidin-1-yl)-6-methylpyrimidin-4-yl)-1′,2′-dihydrospiro[cyclopropane-1,3′-pyrrolo[3,2-c]pyridin]-6′-yl)acetamide] | 0.01 to 0.1 µM | ≥ 1 µM |  |  |
| CC(=O)Nc1cc2c(cn1)C1(CC1)CN2c1nc(C2CCCOC2)cs1 (stereo not shown) [Example 81, N-(1′-(4-(tetrahydro-2H-pyran-3-yl)thiazol-2-yl)-1′,2′-dihydrospiro[cyclopropane-1,3′-pyrrolo[3,2-c]pyridin]-6′-yl)acetamide trifluoroacetate] | 0.01 to 0.1 µM | ≥ 1 µM |  |  |
| CC(=O)Nc1cc2c(cn1)C1(CC1)CN2c1cc(C)cc(N2CCC(F)(F)C2)n1 [Example 184, N-(1′-(6-(3,3-difluoropyrrolidin-1-yl)-4-methylpyridin-2-yl)-1′,2′-dihydrospiro[cyclopropane-1,3′-pyrrolo[3,2-c]pyridin]-6′-yl)acetamide] | 0.01 to 0.1 µM | 0.1 to 1 µM |  |  |
| CC(=O)Nc1cc2c(cn1)C1(CC1)CN2c1cc(CCC(C)(C)O)nc(C(C)(F)F)n1 [Example 327, N-(1′-(2-(1,1-difluoroethyl)-6-(3-hydroxy-3-methylbutyl)pyrimidin-4-yl)-1′,2′-dihydrospiro[cyclopropane-1,3′-pyrrolo[3,2-c]pyridin]-6′-yl)acetamide] | ≤ 0.01 µM | 0.01 to 0.1 µM |  |  |
| CC(=O)Nc1cc2c(cn1)C1(CC1)CN2c1cc(C)nc(CO)n1 [Example 126, N-(1′-(2-(hydroxymethyl)-6-methylpyrimidin-4-yl)-1′,2′-dihydrospiro[cyclopropane-1,3′-pyrrolo[3,2-c]pyridin]-6′-yl)acetamide] | 0.01 to 0.1 µM | ≥ 1 µM |  |  |
